From patent publication US20240173432A1, “Compositions and Methods for Treatment of Myotonic Dystrophy Type 1 with CRISPR/SluCas9” (Vertex Pharmaceuticals Incorporated, priority 2021, published 2024)

Columns and labels:
[1] = system: CTG repeat in the 3′ UTR of human DMPK gene; assay: Dual-cut screening: CTG repeat excision efficiency by loss-of-signal ddPCR; type: cell-based; conditions: sgRNA pair, primary DM1 patient myoblasts; for Excision efficiency (by ddPCR): 3 μM DNA-PKi Compound 6 for 48 hours; for Excision efficiency by ddPCR (Vehicle): vehicle (DMSO)
Protocol: RNPs were assembled with recombinant SluCas9 protein and chemically modified sgRNAs at a ratio of 1:3 (protein:sgRNA). For SINGLE-cut screening, RNP complexes were assembled with 30 pmol of SluCas9 and 90 pmol of sgRNA in P5 Primary Cell Nucleofector Solution (Lonza). After incubation at room temperature for 20 minutes, 10 μL of RNP complex were mixed with two hundred thousand of primary myoblasts resuspended in 10 μL of P5 Nucleofector Solution. For DOUBLE-cut screening, RNP complexes were first assembled for individual sgRNAs with 20 pmol of SluCas9 protein and 60 pmol of sgRNAs in 5 μL of P5 Nucleofector Solution. After incubation at room temperature for 20 minutes, the two RNP complexes (one for upstream sgRNA and one for downstream sgRNA) were mixed at 1:1 ratio and then further mixed with two hundred thousand of primary myoblasts resuspended in 10 μL of P5 Nucleofector Solution.
The Nucleofector 96-well Shuttle System (Lonza) was used to deliver the SluCa9/sgRNA RNPs into primary DM1 patient myoblasts using the nucleofection program CM138. Following nucleofection, myoblasts from each well of nucleofection shuttle were split into six wells of the 96-well cell culture plate (Greiner, 655090) coated with matrigel. The first three wells were treated with DMSO for 48 hrs before changing to fresh myoblast growth medium, and the other three wells were treated with 3 μM of DNA-PKi Compound 6 for 48 hrs before changing to fresh myoblast growth medium. 72 hrs post nucleofection, two wells of DMSO-treated myoblasts and two wells of DNA-PKi-treated myoblasts from each nucleofection were harvested for genomic DNA extraction using the Kingfisher Flex purification system (Thermal Fisher), whereas one well of DMSO-treated myoblasts and one well of DNA-PKi-treated myoblasts were stained for RNA foci by FISH staining.
The primers and probes of ddPCR are designed using the online primer design software Primer3Plus (http://www.bioinformatics.nl/cgi-bin/primer3plus/primer3plus.cgi). In some embodiments, two target primers/probe sets were used to detect CTG repeat excision, and a reference primers/probe set were used to amplify a region located in Exon 1 of human DMPK gene and to serve as a reference control for the target sets. The 24 μL of ddPCR reaction consists of 12 μL of Supermix for Probes (no dUTP) (Bio-Rad Laboratories), 1 μL of Reference primers mix (21.6 μM), 1 μL of Reference probe (6 μM), 1 μL of Target primers mix (21.6 μM), 1 μL of Target probe (6 μM), and 8 μL of sample genomic DNA. Droplets were generated using probe oil with the QX200 Droplet Generator (Bio-Rad Laboratories). Droplets were transferred to a 96-well PCR plate, sealed and cycled in a C1000 deep well Thermocycler (Bio-Rad Laboratories) under the following cycling protocol: 1 cycle at 95° C. for 10 min; 40 cycles of 94° C. for 30 see, and 58° C. for 1 min; 1 cycle at 98° C. for 10 min (for enzyme inactivation). The cycled plate was then transferred and read in the FAM and HEX channels using the Bio-Rad QX200 Droplet Reader (Bio-Rad Laboratories). ddPCR analysis is performed with the Bio-Rad QuantaSoft Pro Software.
To assess the efficiency of SluCas9 sgRNA pairs for inducing CTG repeat excision, Dual-cut screening was performed in which individual SluCas9 sgRNAs and recombinant SluCas9 protein were assembled into ribonucleoprotein (RNP) and delivered into primary DM1 patient myoblasts. Nucleofected myoblasts were treated with either DMSO (vehicle) or 3 μM of DNA-dependent Protein Kinase Inhibitor (DNA-PKi) Compound 6 for 48 hours. 72 hours post-nucleofection, myoblasts were subjected to either genomic DNA isolation or RNA foci staining by fluorescence in situ hybridization (FISH).
CRISPR repeat excision efficiency was assessed for each of the 88 pairs (FIG. 8A-B and Table 5). CTG repeat excision efficiency percentages are shown for vehicle (DMSO; white bars) and with DNA-PKi (black bars) (FIG. 8B and Table 5).

[2] = system: CUG foci in primary DM1 patient myoblasts; assay: Dual-cut screening: FISH staining of CUG RNA foci; type: cell-based, human; conditions: sgRNA pair, primary DM1 patient myoblasts; for % of CUG foci free nuclei (DNA-PKi): 3 μM DNA-PKi Compound 6 for 48 hours; for % of CUG foci free nuclei (Vehicle): vehicle (DMSO)
Method in brief: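 SluCas9 RNPs (protein:sgRNA 1:3; 20 pmol SluCas9 + 60 pmol sgRNA per guide, paired 1:1) nucleofected into primary DM1 patient myoblasts, then DMSO or 3 μM DNA-PKi Compound 6 for 48 h. At 72 h post-nucleofection cells fixed, FISH-stained with Cy3-PNA(CAG)5 probe plus anti-MBNL1 and Hoechst; % CUG foci-free nuclei by high-content confocal imaging.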

SluU08 + SluD48 (guide 1 GCCCCGTTGGAAGACTGAGTGC; guide 2 GAGAGCAGCGCAAGTGAGGAGG; guide RNA; listed as DNA, chemistry not fully specified)
Excision efficiency (by ddPCR) [1]: 55.92
Excision efficiency by ddPCR (Vehicle) [1]: 42.14
% of CUG foci free nuclei (DNA-PKi) [2]: 87.63%
% of CUG foci free nuclei (Vehicle) [2]: 64.93%

SluU08 + SluD56 (guide 1 GCCCCGTTGGAAGACTGAGTGC; guide 2 CCAGCCGGCTCCGCCCGCTTCG; guide RNA; listed as DNA, chemistry not fully specified)
Excision efficiency (by ddPCR) [1]: 52.26
Excision efficiency by ddPCR (Vehicle) [1]: 32.16
% of CUG foci free nuclei (DNA-PKi) [2]: 83.74%
% of CUG foci free nuclei (Vehicle) [2]: 46.21%

SluU08 + SluD68 (guide 1 GCCCCGTTGGAAGACTGAGTGC; guide 2 CCTGTAGCCTGTCAGCGAGTCG; guide RNA; listed as DNA, chemistry not fully specified)
Excision efficiency (by ddPCR) [1]: 62.56
Excision efficiency by ddPCR (Vehicle) [1]: 42.63
% of CUG foci free nuclei (DNA-PKi) [2]: 88.24%
% of CUG foci free nuclei (Vehicle) [2]: 65.1%

SluU08 + SluD73 (guide 1 GCCCCGTTGGAAGACTGAGTGC; guide 2 CCAAAACGTGGATTGGGGTTGT; guide RNA; listed as DNA, chemistry not fully specified)
Excision efficiency (by ddPCR) [1]: 67.61
Excision efficiency by ddPCR (Vehicle) [1]: 50.12
% of CUG foci free nuclei (DNA-PKi) [2]: 89.94%
% of CUG foci free nuclei (Vehicle) [2]: 65.42%

SluU08 + SluD83 (guide 1 GCCCCGTTGGAAGACTGAGTGC; guide 2 GTGGGGACAGACAATAAATACC; guide RNA; listed as DNA, chemistry not fully specified)
Excision efficiency (by ddPCR) [1]: 70.46
Excision efficiency by ddPCR (Vehicle) [1]: 45.64
% of CUG foci free nuclei (DNA-PKi) [2]: 90.38%
% of CUG foci free nuclei (Vehicle) [2]: 68.14%

SluU08 + SluD100 (guide 1 GCCCCGTTGGAAGACTGAGTGC; guide 2 GTCCAGAGCTTTGGGCAGATGG; guide RNA; listed as DNA, chemistry not fully specified)
Excision efficiency (by ddPCR) [1]: 66.38
Excision efficiency by ddPCR (Vehicle) [1]: 41.65
% of CUG foci free nuclei (DNA-PKi) [2]: 88.59%
% of CUG foci free nuclei (Vehicle) [2]: 66.31%

SluU10 + SluD06 (guide 1 CCCGTTGGAAGACTGAGTGCCC; guide 2 CCAGGCTGAGGCCCTGACGTGG; guide RNA; listed as DNA, chemistry not fully specified)
Excision efficiency (by ddPCR) [1]: 63.05
Excision efficiency by ddPCR (Vehicle) [1]: 48.58
% of CUG foci free nuclei (DNA-PKi) [2]: 86.35%
% of CUG foci free nuclei (Vehicle) [2]: 61.37%

SluU10 + SluD14 (guide 1 CCCGTTGGAAGACTGAGTGCCC; guide 2 ATGGGCAAACTGCAGGCCTGGG; guide RNA; listed as DNA, chemistry not fully specified)
Excision efficiency (by ddPCR) [1]: 61.58
Excision efficiency by ddPCR (Vehicle) [1]: 43.14
% of CUG foci free nuclei (DNA-PKi) [2]: 84.04%
% of CUG foci free nuclei (Vehicle) [2]: 62.95%

SluU10 + SluD18 (guide 1 CCCGTTGGAAGACTGAGTGCCC; guide 2 TGGAGGATGGAACACGGACGGC; guide RNA; listed as DNA, chemistry not fully specified)
Excision efficiency (by ddPCR) [1]: 60.59
Excision efficiency by ddPCR (Vehicle) [1]: 51.55
% of CUG foci free nuclei (DNA-PKi) [2]: 89.08%
% of CUG foci free nuclei (Vehicle) [2]: 71.69%

SluU10 + SluD32 (guide 1 CCCGTTGGAAGACTGAGTGCCC; guide 2 CTTGTGCATGACGCCCTGCTCT; guide RNA; listed as DNA, chemistry not fully specified)
Excision efficiency (by ddPCR) [1]: 72.52
Excision efficiency by ddPCR (Vehicle) [1]: 48.62
% of CUG foci free nuclei (DNA-PKi) [2]: 90.08%
% of CUG foci free nuclei (Vehicle) [2]: 77.29%

SluU10 + SluD34 (guide 1 CCCGTTGGAAGACTGAGTGCCC; guide 2 CGCGCCAGACGCTCCCCAGAGC; guide RNA; listed as DNA, chemistry not fully specified)
Excision efficiency (by ddPCR) [1]: 68.59
Excision efficiency by ddPCR (Vehicle) [1]: 52.12
% of CUG foci free nuclei (DNA-PKi) [2]: 88.63%
% of CUG foci free nuclei (Vehicle) [2]: 80.9%

SluU10 + SluD48 (guide 1 CCCGTTGGAAGACTGAGTGCCC; guide 2 GAGAGCAGCGCAAGTGAGGAGG; guide RNA; listed as DNA, chemistry not fully specified)
Excision efficiency (by ddPCR) [1]: 62.29
Excision efficiency by ddPCR (Vehicle) [1]: 44.14
% of CUG foci free nuclei (DNA-PKi) [2]: 88.02%
% of CUG foci free nuclei (Vehicle) [2]: 69.11%

SluU10 + SluD56 (guide 1 CCCGTTGGAAGACTGAGTGCCC; guide 2 CCAGCCGGCTCCGCCCGCTTCG; guide RNA; listed as DNA, chemistry not fully specified)
Excision efficiency (by ddPCR) [1]: 54.92
Excision efficiency by ddPCR (Vehicle) [1]: 33.89
% of CUG foci free nuclei (DNA-PKi) [2]: 83.68%
% of CUG foci free nuclei (Vehicle) [2]: 49.83%

SluU10 + SluD68 (guide 1 CCCGTTGGAAGACTGAGTGCCC; guide 2 CCTGTAGCCTGTCAGCGAGTCG; guide RNA; listed as DNA, chemistry not fully specified)
Excision efficiency (by ddPCR) [1]: 61.29
Excision efficiency by ddPCR (Vehicle) [1]: 42.37
% of CUG foci free nuclei (DNA-PKi) [2]: 89.5%
% of CUG foci free nuclei (Vehicle) [2]: 68.15%

SluU10 + SluD73 (guide 1 CCCGTTGGAAGACTGAGTGCCC; guide 2 CCAAAACGTGGATTGGGGTTGT; guide RNA; listed as DNA, chemistry not fully specified)
Excision efficiency (by ddPCR) [1]: 64.77
Excision efficiency by ddPCR (Vehicle) [1]: 46.13
% of CUG foci free nuclei (DNA-PKi) [2]: 88.46%
% of CUG foci free nuclei (Vehicle) [2]: 69.97%

SluU10 + SluD83 (guide 1 CCCGTTGGAAGACTGAGTGCCC; guide 2 GTGGGGACAGACAATAAATACC; guide RNA; listed as DNA, chemistry not fully specified)
Excision efficiency (by ddPCR) [1]: 68.8
Excision efficiency by ddPCR (Vehicle) [1]: 47.63
% of CUG foci free nuclei (DNA-PKi) [2]: 89.5%
% of CUG foci free nuclei (Vehicle) [2]: 74.17%

SluU10 + SluD100 (guide 1 CCCGTTGGAAGACTGAGTGCCC; guide 2 GTCCAGAGCTTTGGGCAGATGG; guide RNA; listed as DNA, chemistry not fully specified)
Excision efficiency (by ddPCR) [1]: 64.25
Excision efficiency by ddPCR (Vehicle) [1]: 44.65
% of CUG foci free nuclei (DNA-PKi) [2]: 88.24%
% of CUG foci free nuclei (Vehicle) [2]: 67.81%

SluU21 + SluD06 (guide 1 GCTCGGAGCGGTTGTGAACTGG; guide 2 CCAGGCTGAGGCCCTGACGTGG; guide RNA; listed as DNA, chemistry not fully specified)
Excision efficiency (by ddPCR) [1]: 66.01
Excision efficiency by ddPCR (Vehicle) [1]: 46.6
% of CUG foci free nuclei (DNA-PKi) [2]: 88.47%
% of CUG foci free nuclei (Vehicle) [2]: 48.27%

SluU21 + SluD14 (guide 1 GCTCGGAGCGGTTGTGAACTGG; guide 2 ATGGGCAAACTGCAGGCCTGGG; guide RNA; listed as DNA, chemistry not fully specified)
Excision efficiency (by ddPCR) [1]: 63.05
Excision efficiency by ddPCR (Vehicle) [1]: 54.02
% of CUG foci free nuclei (DNA-PKi) [2]: 89.6%
% of CUG foci free nuclei (Vehicle) [2]: 61.25%
